Calls of active or inactive are those of the source. The rule behind the calls is not given here.
Assays:
[1] = Half life in nude mouse liver microsomes; format: ADME, Microsome
A-375 = experiment: Growth inhibition of human A375 cells after 4 days by MTT assay; format: functional, cell-based; settings: A-375, 96 h
[2] = biological target: RAC-beta serine/threonine-protein kinase (Homo sapiens) (UniProt P31751); experiment: Inhibition of AKT2 at 1 uM
[3] = biological target: Tyrosine-protein kinase BTK (Homo sapiens) (UniProt Q06187); experiment: Inhibition of BTK at 1 uM
[4] = biological target: Cyclin-dependent kinase 1/cyclin B (Homo sapiens) (UniProt P06493+P14635+Q8WWL7+O95067); experiment: Inhibition of CDK1/cyclin B at 1 uM; format: protein-complex assay
[5] = biological target: Serine/threonine-protein kinase Chk1 (Homo sapiens) (UniProt O14757); experiment: Inhibition of CHEK1 at 1 uM
[6] = biological target: Tyrosine-protein kinase CSK (Homo sapiens) (UniProt P41240); experiment: Inhibition of CSK at 1 uM
Sequence of Tyrosine-protein kinase CSK (Homo sapiens) (P41240 2-450 limits assumed): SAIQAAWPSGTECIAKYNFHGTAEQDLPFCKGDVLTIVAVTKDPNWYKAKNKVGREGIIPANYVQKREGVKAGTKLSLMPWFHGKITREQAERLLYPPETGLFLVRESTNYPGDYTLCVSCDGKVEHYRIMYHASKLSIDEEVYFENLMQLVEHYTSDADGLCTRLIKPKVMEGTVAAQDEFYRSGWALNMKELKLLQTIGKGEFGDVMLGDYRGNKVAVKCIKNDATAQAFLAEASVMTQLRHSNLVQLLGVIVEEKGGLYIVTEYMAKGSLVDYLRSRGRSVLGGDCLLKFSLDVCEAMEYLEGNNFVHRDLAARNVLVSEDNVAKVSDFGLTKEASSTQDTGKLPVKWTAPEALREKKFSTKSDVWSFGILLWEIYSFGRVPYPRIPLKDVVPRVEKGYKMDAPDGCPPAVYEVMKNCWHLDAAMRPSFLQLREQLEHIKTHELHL

[7] = biological target: Tyrosine-protein kinase Fes/Fps (Homo sapiens) (UniProt P07332); experiment: Inhibition of FES at 1 uM
[8] = biological target: Fibroblast growth factor receptor 1 (Homo sapiens) (UniProt P11362); experiment: Inhibition of FGFR1 at 1 uM
[9] = biological target: Vascular endothelial growth factor receptor 1 (Homo sapiens) (UniProt P17948); experiment: Inhibition of FLT1 at 1 uM
[10] = biological target: Glycogen synthase kinase-3 alpha (Homo sapiens) (UniProt P49840); experiment: Inhibition of GSK3A at 1 uM
[11] = biological target: Insulin-like growth factor 1 receptor (Homo sapiens) (UniProt P08069); experiment: Inhibition of IGF1R at 1 uM
[12] = biological target: Vascular endothelial growth factor receptor 2 (Homo sapiens) (UniProt P35968); experiment: Inhibition of KDR at 1 uM
[13] = biological target: T1, Tyrosine-protein kinase Lck (Homo sapiens, UniProt P06239); experiment: Inhibition of LCK at 1 uM
Target sequence in this assay (P06239 2-509 limits assumed): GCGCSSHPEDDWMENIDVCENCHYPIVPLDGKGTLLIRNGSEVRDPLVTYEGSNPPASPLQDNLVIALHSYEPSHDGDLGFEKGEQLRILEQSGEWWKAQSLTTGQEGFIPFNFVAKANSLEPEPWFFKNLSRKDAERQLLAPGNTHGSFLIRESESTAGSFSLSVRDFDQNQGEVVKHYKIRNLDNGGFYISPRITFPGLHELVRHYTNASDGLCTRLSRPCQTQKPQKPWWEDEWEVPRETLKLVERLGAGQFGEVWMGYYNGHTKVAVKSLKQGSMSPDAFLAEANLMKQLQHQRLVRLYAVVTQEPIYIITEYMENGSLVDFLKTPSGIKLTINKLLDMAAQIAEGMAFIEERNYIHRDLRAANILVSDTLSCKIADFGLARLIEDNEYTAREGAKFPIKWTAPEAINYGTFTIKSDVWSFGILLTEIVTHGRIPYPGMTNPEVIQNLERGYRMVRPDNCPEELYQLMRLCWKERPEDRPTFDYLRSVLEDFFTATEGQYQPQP

[14] = biological target: Dual specificity mitogen-activated protein kinase kinase 1 (Homo sapiens) (UniProt Q02750); experiment: Inhibition of MAP2K at 1 uM
[15] = biological target: Mitogen-activated protein kinase 1 (Homo sapiens) (UniProt P28482); experiment: Inhibition of MAPK1 at 1 uM
[16] = biological target: Mitogen-activated protein kinase 3 (Homo sapiens) (UniProt P27361); experiment: Inhibition of MAPK3 at 1 uM
[17] = biological target: Hepatocyte growth factor receptor (Homo sapiens) (UniProt P08581); experiment: Inhibition of MET at 1 uM
[18] = biological target: High affinity nerve growth factor receptor (Homo sapiens) (UniProt P04629); experiment: Inhibition of NTRK1 at 1 uM
[19] = biological target: Serine/threonine-protein kinase pim-1 (Homo sapiens) (UniProt P11309); experiment: Inhibition of PIM1 at 1 uM
Sequence of Serine/threonine-protein kinase pim-1 (Homo sapiens) (P11309 whole entry, looked up): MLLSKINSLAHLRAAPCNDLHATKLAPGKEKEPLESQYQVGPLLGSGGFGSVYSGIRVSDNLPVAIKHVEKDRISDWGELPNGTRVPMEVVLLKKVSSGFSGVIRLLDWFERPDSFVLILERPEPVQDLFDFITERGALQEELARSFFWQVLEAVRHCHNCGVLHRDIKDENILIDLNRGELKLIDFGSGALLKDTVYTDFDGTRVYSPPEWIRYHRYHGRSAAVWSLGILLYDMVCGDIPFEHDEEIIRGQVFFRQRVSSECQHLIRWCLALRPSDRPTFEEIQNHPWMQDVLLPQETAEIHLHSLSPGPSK

[20] = biological target: Serine/threonine-protein kinase PLK1 (Homo sapiens) (UniProt P53350); experiment: Inhibition of PLK1 at 1 uM
Sequence of Serine/threonine-protein kinase PLK1 (Homo sapiens) (P53350 whole entry): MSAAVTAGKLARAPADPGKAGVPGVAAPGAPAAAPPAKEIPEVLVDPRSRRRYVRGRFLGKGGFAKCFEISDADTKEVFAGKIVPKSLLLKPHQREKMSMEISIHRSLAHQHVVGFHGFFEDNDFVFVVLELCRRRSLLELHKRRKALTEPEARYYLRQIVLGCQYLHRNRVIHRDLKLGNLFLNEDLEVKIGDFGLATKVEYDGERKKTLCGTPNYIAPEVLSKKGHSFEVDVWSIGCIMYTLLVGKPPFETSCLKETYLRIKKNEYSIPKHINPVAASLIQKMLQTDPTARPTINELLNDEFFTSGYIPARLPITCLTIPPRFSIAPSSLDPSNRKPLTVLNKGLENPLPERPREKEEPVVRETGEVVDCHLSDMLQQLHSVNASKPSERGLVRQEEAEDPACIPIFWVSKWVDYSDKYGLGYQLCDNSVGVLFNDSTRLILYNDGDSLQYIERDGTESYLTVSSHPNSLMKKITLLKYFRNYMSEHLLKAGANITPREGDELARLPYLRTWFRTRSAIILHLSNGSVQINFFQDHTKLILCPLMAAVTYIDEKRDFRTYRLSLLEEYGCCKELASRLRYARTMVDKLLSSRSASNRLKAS

[21] = biological target: Protein kinase C beta type (Homo sapiens) (UniProt P05771); experiment: Inhibition of PRKCB1 at 1 uM
Sequence of Protein kinase C beta type (Homo sapiens) (P05771 2-671 limits assumed): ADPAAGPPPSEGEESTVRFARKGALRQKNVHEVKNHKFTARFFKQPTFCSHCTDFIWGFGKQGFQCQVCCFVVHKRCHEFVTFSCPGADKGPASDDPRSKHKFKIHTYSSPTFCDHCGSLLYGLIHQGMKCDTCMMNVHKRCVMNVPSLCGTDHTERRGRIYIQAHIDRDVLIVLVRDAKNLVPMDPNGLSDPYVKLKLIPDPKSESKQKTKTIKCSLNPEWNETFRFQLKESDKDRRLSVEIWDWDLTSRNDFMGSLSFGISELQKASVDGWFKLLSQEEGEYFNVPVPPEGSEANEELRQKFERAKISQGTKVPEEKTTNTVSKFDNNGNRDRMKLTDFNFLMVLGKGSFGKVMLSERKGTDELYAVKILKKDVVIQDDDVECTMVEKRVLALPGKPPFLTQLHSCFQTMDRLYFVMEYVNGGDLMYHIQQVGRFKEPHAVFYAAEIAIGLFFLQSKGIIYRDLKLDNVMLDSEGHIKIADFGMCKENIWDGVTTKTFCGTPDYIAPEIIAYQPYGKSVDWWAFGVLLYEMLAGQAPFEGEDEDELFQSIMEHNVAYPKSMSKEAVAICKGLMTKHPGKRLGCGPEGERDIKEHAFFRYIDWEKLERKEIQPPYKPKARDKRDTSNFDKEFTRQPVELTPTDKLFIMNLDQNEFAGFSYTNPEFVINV

[22] = biological target: Protein kinase C beta type (Homo sapiens) (UniProt P05771); experiment: Inhibition of PRKCB2 at 1 uM
[23] = biological target: Protein kinase C gamma type (Homo sapiens) (UniProt P05129); experiment: Inhibition of PRKCG at 1 uM
[24] = biological target: Proto-oncogene tyrosine-protein kinase receptor Ret (Homo sapiens, UniProt P07949); experiment: Inhibition of RET at 1 uM
[25] = biological target: Serine/threonine-protein kinase Sgk1 (Homo sapiens) (UniProt O00141); experiment: Inhibition of SGK at 1 uM
[26] = biological target: Tyrosine-protein kinase ZAP-70 (Homo sapiens) (UniProt P43403); experiment: Inhibition of ZAP70 at 1 uM
Sequence of Tyrosine-protein kinase ZAP-70 (Homo sapiens) (P43403 whole entry): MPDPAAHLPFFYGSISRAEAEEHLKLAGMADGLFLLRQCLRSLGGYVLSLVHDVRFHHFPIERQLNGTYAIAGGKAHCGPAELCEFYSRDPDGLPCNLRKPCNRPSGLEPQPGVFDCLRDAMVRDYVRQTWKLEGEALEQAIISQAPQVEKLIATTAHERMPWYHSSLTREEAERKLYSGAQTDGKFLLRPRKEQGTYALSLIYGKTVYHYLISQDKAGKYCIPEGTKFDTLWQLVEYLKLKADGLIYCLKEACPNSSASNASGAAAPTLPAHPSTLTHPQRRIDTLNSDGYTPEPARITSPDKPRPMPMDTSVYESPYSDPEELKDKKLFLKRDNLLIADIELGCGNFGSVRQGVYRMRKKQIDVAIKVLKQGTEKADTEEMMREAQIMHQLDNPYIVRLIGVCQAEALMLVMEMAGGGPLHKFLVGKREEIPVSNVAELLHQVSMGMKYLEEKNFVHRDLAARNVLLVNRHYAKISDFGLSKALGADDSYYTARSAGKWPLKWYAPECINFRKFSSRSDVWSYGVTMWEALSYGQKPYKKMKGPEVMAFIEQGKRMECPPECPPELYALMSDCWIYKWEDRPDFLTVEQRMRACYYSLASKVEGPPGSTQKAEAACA

[27] = biological target: Tyrosine-protein kinase ABL1 (Homo sapiens, UniProt P00519); experiment: Inhibition of ABL1
Ephrin type-A receptor 1 = Ephrin type-A receptor 1 (Homo sapiens, UniProt P21709); experiment: Inhibition of EPHA1
[28] = biological target: T1, Tyrosine-protein kinase Lck; experiment: Inhibition of LCK
[29] = Oral bioavailability in nude mouse at 10 mg/kg; format: ADME, organism-based; settings: in vivo, read-out: Activity
Mus musculus = experiment: Inhibition of BRAF-mediated ERK phosphorylation in human A375 cells xenografted nude mouse at 50 mg/kg, iv after 24 hrs; format: functional, organism-based; design: dose 50 mg/kg; settings: A-375
COLO 205 = experiment: Antitumor activity against human COLO205 cells xenografted in nude mouse assessed as tumor growth inhibition at 7.5 mg/kg, po; format: functional, organism-based; design: dose 7.5 mg/kg
[30] = biological target: RAF proto-oncogene serine/threonine-protein kinase (Homo sapiens, UniProt P04049); settings: 1 uM
Description: Inhibition of C-raf at 1 uM

Angiopoietin-1 receptor = Angiopoietin-1 receptor (Homo sapiens, UniProt Q02763); settings: 1 uM
Sequence of Angiopoietin-1 receptor (Q02763 whole entry): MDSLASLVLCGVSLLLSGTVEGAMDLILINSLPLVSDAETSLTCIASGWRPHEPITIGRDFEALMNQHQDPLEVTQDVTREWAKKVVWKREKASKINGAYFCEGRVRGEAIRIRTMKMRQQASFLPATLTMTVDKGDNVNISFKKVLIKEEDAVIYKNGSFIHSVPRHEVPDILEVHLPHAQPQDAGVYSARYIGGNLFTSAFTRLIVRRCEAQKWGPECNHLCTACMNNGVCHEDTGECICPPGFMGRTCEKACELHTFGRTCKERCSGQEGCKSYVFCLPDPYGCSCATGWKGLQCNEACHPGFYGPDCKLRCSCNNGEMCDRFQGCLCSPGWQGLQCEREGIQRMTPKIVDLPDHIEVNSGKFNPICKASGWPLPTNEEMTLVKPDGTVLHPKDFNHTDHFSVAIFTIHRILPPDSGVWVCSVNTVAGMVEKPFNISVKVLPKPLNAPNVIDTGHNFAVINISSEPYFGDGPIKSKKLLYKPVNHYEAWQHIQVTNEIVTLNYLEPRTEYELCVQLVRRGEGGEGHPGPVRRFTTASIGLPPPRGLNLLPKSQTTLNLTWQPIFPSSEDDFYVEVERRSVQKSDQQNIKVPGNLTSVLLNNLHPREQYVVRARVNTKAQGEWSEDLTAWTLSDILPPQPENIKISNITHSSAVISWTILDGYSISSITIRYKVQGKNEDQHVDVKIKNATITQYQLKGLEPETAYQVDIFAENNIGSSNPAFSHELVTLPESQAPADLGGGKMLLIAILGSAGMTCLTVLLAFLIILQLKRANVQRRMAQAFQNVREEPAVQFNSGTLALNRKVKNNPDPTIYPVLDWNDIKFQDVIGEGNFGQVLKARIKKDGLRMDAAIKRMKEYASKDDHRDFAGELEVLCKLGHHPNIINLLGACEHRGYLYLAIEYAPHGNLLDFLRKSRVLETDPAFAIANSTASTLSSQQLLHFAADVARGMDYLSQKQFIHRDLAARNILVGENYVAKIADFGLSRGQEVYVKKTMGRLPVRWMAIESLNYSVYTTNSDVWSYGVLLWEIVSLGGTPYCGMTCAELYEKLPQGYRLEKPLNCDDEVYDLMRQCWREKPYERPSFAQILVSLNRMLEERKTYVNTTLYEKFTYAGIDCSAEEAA
Description: Inhibition of TEK at 1 uM

[31] = biological target: Tyrosine-protein kinase Yes (Homo sapiens, UniProt P07947); settings: 1 uM
Sequence of Tyrosine-protein kinase Yes (P07947 2-543 limits assumed): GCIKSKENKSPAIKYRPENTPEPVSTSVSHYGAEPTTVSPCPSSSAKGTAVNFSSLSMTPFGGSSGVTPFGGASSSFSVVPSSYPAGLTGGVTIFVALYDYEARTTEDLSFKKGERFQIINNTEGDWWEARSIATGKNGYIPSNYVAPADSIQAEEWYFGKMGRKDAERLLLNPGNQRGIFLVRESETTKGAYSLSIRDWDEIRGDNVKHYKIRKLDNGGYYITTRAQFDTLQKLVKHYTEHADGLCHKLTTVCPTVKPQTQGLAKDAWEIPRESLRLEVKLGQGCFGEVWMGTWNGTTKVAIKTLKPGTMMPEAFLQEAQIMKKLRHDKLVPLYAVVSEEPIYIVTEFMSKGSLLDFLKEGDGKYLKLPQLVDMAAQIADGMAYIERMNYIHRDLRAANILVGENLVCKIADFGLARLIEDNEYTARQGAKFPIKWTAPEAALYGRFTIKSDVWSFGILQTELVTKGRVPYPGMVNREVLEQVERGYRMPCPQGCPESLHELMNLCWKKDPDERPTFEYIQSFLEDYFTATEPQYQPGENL
Description: Inhibition of YES1 at 1 uM

[32] = biological target: 3-phosphoinositide-dependent protein kinase 1 (Homo sapiens) (UniProt O15530); experiment: Inhibition of PDK1 at 1 uM

half-life [1]: > 30 min
IC50 (A-375): 24 nM
inhibition [2]: 9%
inhibition [3]: 48%
inhibition [4]: 0%
inhibition [5]: 0%
inhibition [6]: 19%
inhibition [7]: 21%
inhibition [8]: 63%
inhibition [9]: 14%
inhibition [10]: 34%
inhibition [11]: 5%
inhibition [12]: 39%
inhibition [13]: 73%
inhibition [14]: 12%
inhibition [15]: 6%
inhibition [16]: 5%
inhibition [17]: 66%
inhibition [18]: 25%
inhibition [19]: 5%
inhibition [20]: 11%
inhibition [21]: 39%
inhibition [22]: 51%
inhibition [23]: 15%
inhibition [24]: 84%
inhibition [25]: 8%
inhibition [26]: 4%
IC50 [27]: 286 nM
IC50 (Ephrin type-A receptor 1): 95.3 nM
IC50 [28]: 505 nM
bioavailability [29]: 54%
inhibition [30]: 88%
inhibition (Angiopoietin-1 receptor): 81%
inhibition [31]: 68%
inhibition [32]: 3%
SMILES: CN1C[C@@H]2C[C@H]1CN2c1cc(F)c(-c2ccnc3c(-c4cccc5[nH]ncc45)c(-c4ccncc4)nn23)c(F)c1
inhibition (Mus musculus): Active
TGI (COLO 205): Active

Source: ChEMBL document CHEMBL1275379, “Indazolylpyrazolopyrimidine as highly potent B-Raf inhibitors with in vivo activity” (J Med Chem, 2010)
